# Entries after “also recorded” stand apart in the source; their conditions may differ.
# Tests used:
# PAR2 = target: T1, PAR2 (Mus musculus, UniProt P55086); conditions: demonstrated in WT, but not PAR2−/− mice; cited from earlier work
# T1 sequence (P55086 26-399): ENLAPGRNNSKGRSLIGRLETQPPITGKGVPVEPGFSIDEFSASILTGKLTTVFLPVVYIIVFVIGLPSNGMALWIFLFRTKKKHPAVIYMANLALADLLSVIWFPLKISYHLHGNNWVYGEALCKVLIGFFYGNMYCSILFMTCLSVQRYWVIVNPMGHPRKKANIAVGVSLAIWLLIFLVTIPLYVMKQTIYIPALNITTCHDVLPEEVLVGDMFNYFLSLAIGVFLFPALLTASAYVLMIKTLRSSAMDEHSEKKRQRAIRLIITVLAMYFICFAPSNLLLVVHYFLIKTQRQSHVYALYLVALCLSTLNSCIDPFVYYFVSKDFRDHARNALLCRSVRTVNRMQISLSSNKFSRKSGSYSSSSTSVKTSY
# [1] = test system: C57BL/6 WT murine small intestine segments; test: Ex vivo intestinal permeability (TEER) in the microsnapwell system; format: cell-based, mouse; conditions: for TEER change / intestinal permeability, dose-response experiment: C57BL/6 WT segments, zonulin 5-50 μg/well, trypsin-cleaved pre-HP2 50 μg/well
# Experimental: The effect of zonulin/pre-HP2 on ex vivo intestinal permeability was monitored in the microsnapwell system as described (3). Briefly, segments of small intestine from C57BL/6 WT mice were mounted onto the microsnapwell system, and their luminal side was exposed for 30 min to medium alone or to the medium containing increasing concentrations of the purified recombinant zonulin. TEER was measured at time 0 and at 30-min time intervals for a period of 2 h using a planar electrode (Endohm SNAP electrode attached to an Evom-G WPI analyzer; World Precision Instruments) and expressed in Ω/cm^2 after normalization. […] In another set of experiments, zonulin was tested both in C57BL/6 WT and PAR2−/− mice. […]
# Recombinant pre-HP2 (from now on defined as zonulin) was applied to WT C57BL/6 murine small intestine segments mounted in microsnapwells.
# EGFR = target: T2, EGFR (Homo sapiens, UniProt P00533); test: EGFR phosphorylation in serum-starved Caco-2 cells (immunoprecipitation / Western blot); format: cell-based; conditions: for EGFR phosphorylation compared with single chain zonulin: two-chain mature HP2 10 ml/ml as printed, Caco-2, FIG. 5D
# T2 construct: serum-starved, high EGFR-expressing Caco-2 cells; endogenous in cells; host or cells: Caco-2
# Experimental: PAR2 expression in Caco-2 cells was silenced using 2 different PAR2 siRNAs [HSS103471 and HSS103473 (50 nM each); Invitrogen].
# The effect of zonulin on ex vivo and in vivo intestinal permeability was performed as described (8, 14) and reported above. To determine whether zonulin can activate EGFR, increasing concentrations of either zonulin or two-chain mature HP2 were added for increasing exposure times to serum-starved, high EGFR-expressing Caco-2 cells. The cells were lysed and processed for WB with anti-phospho EGFR (Y1068) Ab (Cell Signaling Technol. Inc.) as reported (40).
# To determine whether zonulin can activate EGFR, increasing concentrations of baculovirus-derived, recombinant zonulin were added to Caco-2 intestinal epithelial cells. The cells were lysed, immunoprecipitated with anti-EGFR Ab, and processed for phosphotyrosine immunoblotting (PY-Plus).
# 129/SvEv WT mice = test: In vivo gastrointestinal permeability with sugar probes (lactulose/mannitol, sucrose); design: species or system mouse; conditions: for small intestinal permeability (lacman ratio) vs BSA-treated controls / gastroduodenal permeability (sucrose fractional excretion) vs BSA-treated controls: 170 mg/mouse [sic], gavage, challenge day vs 3 days before; for small intestinal permeability (lacman ratio) vs BSA-treated controls: FIG. 4A; for gastroduodenal permeability (sucrose fractional excretion) vs BSA-treated controls: FIG. 4B
# Experimental: They were acclimatized to the experimental techniques for 3 wk, by fasting the animals for 3 h, gavaging the animals with a sugar probe, and placing them in metabolic cages twice each wk. On the day of protein challenge, the animals received either 170 micrograms of the purified single-chain zonulin in a 60 microliter solution or a similar amount of purified 2-chain cleaved HP2, together with the sugar gavage as described (4). […] Two days after the drug challenge day, mice were again placed in metabolic cages to measure their recovery from the treatment.
# To establish whether zonulin might alter intestinal permeability in vivo, mice were gavaged with the single chain recombinant pre-HP2 protein (170 mg/mouse), and gastroduodenal and small intestinal permeability tested using specific sugar probes (sucrose and lactulose/mannitol, respectively) as described (14).
molecule,measurement,setting,value
FCIGRL [AT1002],changes in TEER,PAR2,PAR2-dependent changes in TEER
"COc1cc2ncnc(Nc3cccc(Cl)c3)c2cc1OC [AG1478, reference compound]",effect on zonulin-induced drop in TEER,"[1]; 5 μM AG1478 with zonulin 10 μg/well, C57BL/6 WT, 90 min, FIG. 5C",abolished TEER reduction; also recorded: prevented
"zonulin: Recombinant human haptoglobin-2 precursor (pre-HP2), uncleaved single chain, expressed in a baculovirus system",concentration at which tyrosine phosphorylation of EGFR increased,"EGFR; Caco-2 cells, anti-EGFR IP, PY-Plus blot, FIG. 5A",≥ 3 mg/mL
same,concentration at which the dose-dependent increase in EGFR phosphorylation reached a plateau,"EGFR; serum-starved Caco-2 cells, FIG. 5A",3 ml/ml
same,EGFR phosphorylation vs media,"EGFR; zonulin 10 ml/well as printed, alone, serum-starved Caco-2, FIG. 5B",increase in EGFR phosphorylation
same,"TEER change / intestinal permeability, dose-response experiment",[1]; FIG. 3,increased intestinal permeability in C57BL/6 WT mice in a dose-and time-dependent manner
same,TEER change in wild-type intestinal segments,"[1]; C57BL/6 WT, 10 μg/well, baseline vs 90 min, FIG. 5C, 6B",decreased TEER; also recorded: significant drop in TEER
same,TEER change in PAR2−/− intestinal segments,"[1]; PAR2−/− mice, 10 mg zonulin as printed, time 0 vs 90 min, FIG. 6B",failed to reduce TEER; also recorded: did not increase intestinal permeability
same,concentration at which TEER decreased (increased permeability),"[1]; added to mucosal (luminal) aspect of WT C57BL/6 small intestine segments, FIG. 3",≥ 40 µg/mL
same,concentration inducing significant drop in TEER,"[1]; luminal side, C57BL/6 WT, starting at 60 min post-exposure, tested 5, 10, 25, 50 μg/well, FIG. 3",10 μg/well
same,small intestinal permeability (lacman ratio) vs BSA-treated controls,129/SvEv WT mice,increases
same,small intestinal permeability (lacman ratio) vs BSA-treated controls,129/SvEv WT mice; listed as Zonulin/preHP2,increased
same,gastroduodenal permeability (sucrose fractional excretion) vs BSA-treated controls,129/SvEv WT mice,increases
same,gastroduodenal permeability (sucrose fractional excretion) vs BSA-treated controls,129/SvEv WT mice; listed as Zonulin/preHP2,increased
same,time for small intestinal permeability to return to pre-challenge values,"129/SvEv WT mice; after zonulin challenge, FIG. 4C",≤ 48 h
same,time for gastroduodenal permeability to return to pre-challenge values,"129/SvEv WT mice; after zonulin challenge, FIG. 4D",≤ 48 h
two-chain HP2: Cleaved two-chain mature HP2 (α2 and β chains) obtained by trypsin digestion of single chain zonulin (protein) chain 1: VDSGNDVTDIADDGCPKPPEIAHGYVEHSVRYQCKNYYKLRTEGDGVYTLNDKKQWINKAVGDKLPECEADDGCPKPPEIAHGYVEHSVRYQCKNYYKLRTEGDGVYTLNNEKQWINKAVGDKLPECEAVCGKPKNPANPVQR chain 2: ILGGHLDAKGSFPWQAKMVSHHNLTTGATLINEQWLLTTAKNLFLNHSENATAKDIAPTLTLYVGKKQLVEIEKVVLHPNYSQVDIGLIKLKQKVSVNERVMPICLPSKDYAEVGRVGYVSGWGRNANFKFTDHLKYVMLPVADQDQCIRHYEGSTVPEKKTPKSPVGVQPILNEHTFCAGMSKYQEDTCYGDAGSAFAVHDLEEDTWYATGILSFDKSCAVAEYGVYVKVTSIQDWVQKTIAENHHHHHH,EGFR phosphorylation compared with single chain zonulin,EGFR,dramatically reduced
same,EGFR phosphorylation compared with single chain zonulin,EGFR; listed as two-chain mature HP2,significantly reduced
same,"TEER change / intestinal permeability, dose-response experiment",[1]; FIG. 3,no consistent TEER changes
same,small intestinal permeability (lacman ratio) vs BSA-treated controls,129/SvEv WT mice,failed to alter; also recorded: no changes
same,gastroduodenal permeability (sucrose fractional excretion) vs BSA-treated controls,129/SvEv WT mice,failed to alter; also recorded: no changes

# — US20140363818A1, “EGFR and PAR2 Regulation of Intestinal Permeability” (UNIVERSITY OF MARYLAND, BALTIMORE, priority 2009, published 2014)
